Laboratory results as given in ChEMBL document CHEMBL1909046, “DrugMatrix in vitro pharmacology data”.

Columns and labels:
[1] = target: Mitogen-activated protein kinase 3 (Homo sapiens, UniProt P27361); assay: DRUGMATRIX: Protein Serine/Threonine Kinase, ERK1 enzyme inhibition (substrate: Myelin Basic Protein); parameters: species or system Escherichia coli; conditions: Not Active = under 50% inhibition at 10 µM
Melanocortin receptor 3 = Melanocortin receptor 3 (Homo sapiens, UniProt P41968); type: cell membranes, Membrane; conditions: hek293; further: in other assays of this panel Not Active means under 50% inhibition at 10 µM
[2] = target: T1, Vasoactive intestinal polypeptide receptor 1 (Homo sapiens, UniProt P32241); type: cell membranes, Membrane; conditions: ht-29; further: in other assays of this panel Not Active means under 50% inhibition at 10 µM
T1 sequence (P32241 whole entry): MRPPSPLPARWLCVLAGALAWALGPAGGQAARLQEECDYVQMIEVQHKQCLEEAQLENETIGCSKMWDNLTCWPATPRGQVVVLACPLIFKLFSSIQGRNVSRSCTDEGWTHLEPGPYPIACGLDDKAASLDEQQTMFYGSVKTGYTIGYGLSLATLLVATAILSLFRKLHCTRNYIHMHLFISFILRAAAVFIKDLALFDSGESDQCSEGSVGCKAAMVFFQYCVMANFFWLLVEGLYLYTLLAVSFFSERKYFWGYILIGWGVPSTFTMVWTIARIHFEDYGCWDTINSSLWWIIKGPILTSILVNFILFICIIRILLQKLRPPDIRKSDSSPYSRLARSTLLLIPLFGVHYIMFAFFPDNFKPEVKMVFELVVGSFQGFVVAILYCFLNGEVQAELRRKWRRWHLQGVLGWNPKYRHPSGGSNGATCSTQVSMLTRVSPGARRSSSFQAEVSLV

[3] = target: Aldo-keto reductase family 1 member B1 (Rattus norvegicus, UniProt P07943); type: tissue-based, Lens of camera-type eye;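 further: inhibition of aldose reductase enzyme activity, measured with DL-glyceraldehyde as the substrate; in other assays of this panel Not Active means under 50% inhibition at 10 µM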
Endothelin-1 receptor = target: T2, Endothelin-1 receptor (Homo sapiens, UniProt P25101); type: cell membranes, Membrane; conditions: cho-k1; further: in other assays of this panel Not Active means under 50% inhibition at 10 µM
T2 sequence (P25101 whole entry): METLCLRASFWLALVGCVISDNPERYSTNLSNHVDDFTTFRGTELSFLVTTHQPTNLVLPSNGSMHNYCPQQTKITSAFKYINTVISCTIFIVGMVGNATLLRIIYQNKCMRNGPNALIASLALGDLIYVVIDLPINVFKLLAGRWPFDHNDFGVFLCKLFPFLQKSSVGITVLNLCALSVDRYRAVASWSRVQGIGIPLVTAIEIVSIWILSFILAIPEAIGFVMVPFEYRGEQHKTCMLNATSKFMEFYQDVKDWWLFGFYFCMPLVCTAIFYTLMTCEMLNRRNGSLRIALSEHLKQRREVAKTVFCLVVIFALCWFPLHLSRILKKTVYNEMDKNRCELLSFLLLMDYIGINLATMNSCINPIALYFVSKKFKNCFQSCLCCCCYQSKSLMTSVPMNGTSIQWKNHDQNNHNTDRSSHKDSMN

Interstitial collagenase = target: T3, Interstitial collagenase (Homo sapiens, UniProt P03956); type: tissue-based, Rheumatoid synovial fibroblasts
T3 sequence (P03956 whole entry): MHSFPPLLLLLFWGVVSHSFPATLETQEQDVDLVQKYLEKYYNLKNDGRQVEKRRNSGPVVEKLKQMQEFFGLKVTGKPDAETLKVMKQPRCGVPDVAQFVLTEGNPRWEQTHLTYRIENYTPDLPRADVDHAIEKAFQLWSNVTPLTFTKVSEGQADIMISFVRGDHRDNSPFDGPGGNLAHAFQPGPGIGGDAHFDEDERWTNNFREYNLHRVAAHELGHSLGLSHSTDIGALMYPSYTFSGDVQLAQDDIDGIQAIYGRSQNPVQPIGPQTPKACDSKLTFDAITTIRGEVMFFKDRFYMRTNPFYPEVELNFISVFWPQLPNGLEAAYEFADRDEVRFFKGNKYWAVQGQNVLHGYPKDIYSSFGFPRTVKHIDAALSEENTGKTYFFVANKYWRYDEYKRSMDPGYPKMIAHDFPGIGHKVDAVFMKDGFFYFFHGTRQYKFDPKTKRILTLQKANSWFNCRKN

Cathepsin G = target: T4, Cathepsin G (Homo sapiens, UniProt P08311); type: tissue-based; conditions: neutrophil
T4 sequence (P08311 whole entry): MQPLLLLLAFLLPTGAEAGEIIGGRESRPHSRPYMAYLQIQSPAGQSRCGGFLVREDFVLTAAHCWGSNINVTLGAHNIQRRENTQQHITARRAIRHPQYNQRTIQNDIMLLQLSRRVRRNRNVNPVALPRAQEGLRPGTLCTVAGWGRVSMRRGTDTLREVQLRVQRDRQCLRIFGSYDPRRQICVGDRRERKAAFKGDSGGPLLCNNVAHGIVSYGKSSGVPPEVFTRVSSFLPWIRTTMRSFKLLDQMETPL

[4] = target: T5, Neuropeptide Y receptor type 1 (Homo sapiens, UniProt P25929); type: cell membranes, Membrane; conditions: sk-n-mc; further: in other assays of this panel Not Active means under 50% inhibition at 10 µM
T5 sequence (P25929 whole entry): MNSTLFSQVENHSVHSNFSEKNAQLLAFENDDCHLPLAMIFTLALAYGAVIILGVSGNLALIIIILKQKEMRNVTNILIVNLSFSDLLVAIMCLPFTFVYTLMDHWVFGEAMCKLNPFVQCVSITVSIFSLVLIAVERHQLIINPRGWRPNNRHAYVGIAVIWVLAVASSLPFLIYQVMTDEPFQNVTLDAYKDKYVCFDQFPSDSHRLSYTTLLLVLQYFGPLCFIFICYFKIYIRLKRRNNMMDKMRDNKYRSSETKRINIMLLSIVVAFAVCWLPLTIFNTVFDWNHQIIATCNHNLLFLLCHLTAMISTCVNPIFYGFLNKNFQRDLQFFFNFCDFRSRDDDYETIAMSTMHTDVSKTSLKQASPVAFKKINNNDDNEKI

Nitric oxide synthase 1 = Nitric oxide synthase 1 (Rattus norvegicus, UniProt P29476); type: tissue-based, Cerebellum; further: in other assays of this panel Not Active means under 50% inhibition at 10 µM
[5] = target: T6, Alpha-1B adrenergic receptor (Rattus norvegicus, UniProt P15823); assay: DRUGMATRIX: Alpha-1B adrenergic receptor radioligand binding (ligand: prazosin); type: cell membranes, Wistar, Liver, Membrane; conditions: Not Active = under 50% inhibition at 10 µM
T6 sequence (P15823 whole entry): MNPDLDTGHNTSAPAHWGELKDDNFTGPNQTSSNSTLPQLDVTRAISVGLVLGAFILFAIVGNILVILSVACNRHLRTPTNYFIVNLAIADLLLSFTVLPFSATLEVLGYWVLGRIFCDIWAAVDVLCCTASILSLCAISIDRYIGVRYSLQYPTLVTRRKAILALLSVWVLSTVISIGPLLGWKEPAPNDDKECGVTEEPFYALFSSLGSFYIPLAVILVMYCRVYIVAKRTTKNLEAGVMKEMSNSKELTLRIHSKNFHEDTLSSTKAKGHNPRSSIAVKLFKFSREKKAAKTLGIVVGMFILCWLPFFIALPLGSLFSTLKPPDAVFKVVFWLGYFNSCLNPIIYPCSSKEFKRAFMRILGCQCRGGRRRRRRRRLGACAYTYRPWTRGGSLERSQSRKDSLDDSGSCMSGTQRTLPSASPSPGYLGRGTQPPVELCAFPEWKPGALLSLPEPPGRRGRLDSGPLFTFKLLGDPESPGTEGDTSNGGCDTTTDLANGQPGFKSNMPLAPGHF

Measured: IC50

Chain of Melanocortin receptor 3 (P41968 whole entry): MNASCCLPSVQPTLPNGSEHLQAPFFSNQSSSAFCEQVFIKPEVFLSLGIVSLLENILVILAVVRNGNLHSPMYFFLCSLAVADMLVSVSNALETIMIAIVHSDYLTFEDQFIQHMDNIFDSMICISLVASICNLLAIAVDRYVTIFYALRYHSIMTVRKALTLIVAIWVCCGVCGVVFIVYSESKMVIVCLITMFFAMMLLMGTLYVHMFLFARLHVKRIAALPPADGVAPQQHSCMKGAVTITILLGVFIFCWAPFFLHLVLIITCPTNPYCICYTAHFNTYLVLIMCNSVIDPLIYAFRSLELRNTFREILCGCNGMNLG
Chain of Nitric oxide synthase 1 (P29476 whole entry): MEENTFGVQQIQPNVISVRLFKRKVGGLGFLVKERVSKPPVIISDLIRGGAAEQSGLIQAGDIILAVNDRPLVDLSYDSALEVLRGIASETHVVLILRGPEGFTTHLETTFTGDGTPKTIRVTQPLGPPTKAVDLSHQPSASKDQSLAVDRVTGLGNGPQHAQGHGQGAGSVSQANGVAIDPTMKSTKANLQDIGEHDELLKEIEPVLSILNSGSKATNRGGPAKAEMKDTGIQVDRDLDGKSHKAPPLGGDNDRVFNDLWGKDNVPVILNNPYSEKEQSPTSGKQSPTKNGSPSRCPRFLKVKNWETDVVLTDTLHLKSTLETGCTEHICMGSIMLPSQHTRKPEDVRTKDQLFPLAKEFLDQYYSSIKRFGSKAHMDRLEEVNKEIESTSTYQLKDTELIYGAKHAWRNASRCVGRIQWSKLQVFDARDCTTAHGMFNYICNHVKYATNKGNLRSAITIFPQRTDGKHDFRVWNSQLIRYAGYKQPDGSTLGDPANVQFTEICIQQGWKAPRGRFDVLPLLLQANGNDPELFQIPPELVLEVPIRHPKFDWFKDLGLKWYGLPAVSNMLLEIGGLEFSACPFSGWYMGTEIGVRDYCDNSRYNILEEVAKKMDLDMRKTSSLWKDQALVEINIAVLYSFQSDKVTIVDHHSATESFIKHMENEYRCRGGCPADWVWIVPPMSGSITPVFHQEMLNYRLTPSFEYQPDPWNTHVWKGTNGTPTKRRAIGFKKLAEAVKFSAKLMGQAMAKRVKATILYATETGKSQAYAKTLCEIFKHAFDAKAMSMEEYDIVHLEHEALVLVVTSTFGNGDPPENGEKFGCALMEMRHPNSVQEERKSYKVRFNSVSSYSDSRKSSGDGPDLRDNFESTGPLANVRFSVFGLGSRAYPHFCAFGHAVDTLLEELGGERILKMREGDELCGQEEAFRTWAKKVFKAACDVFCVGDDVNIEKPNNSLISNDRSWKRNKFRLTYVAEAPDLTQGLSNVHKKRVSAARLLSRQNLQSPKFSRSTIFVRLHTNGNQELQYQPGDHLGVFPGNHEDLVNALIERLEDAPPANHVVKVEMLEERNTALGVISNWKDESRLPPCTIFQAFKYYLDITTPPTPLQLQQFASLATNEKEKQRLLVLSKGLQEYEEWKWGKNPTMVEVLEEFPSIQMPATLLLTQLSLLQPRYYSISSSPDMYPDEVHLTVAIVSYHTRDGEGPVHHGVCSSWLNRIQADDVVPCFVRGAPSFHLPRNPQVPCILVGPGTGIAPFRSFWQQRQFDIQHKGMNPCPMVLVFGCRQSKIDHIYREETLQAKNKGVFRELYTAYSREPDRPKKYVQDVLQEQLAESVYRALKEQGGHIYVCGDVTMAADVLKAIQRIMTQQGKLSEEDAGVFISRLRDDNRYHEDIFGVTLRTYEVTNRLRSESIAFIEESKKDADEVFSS
Chain of Mitogen-activated protein kinase 3 (P27361 whole entry): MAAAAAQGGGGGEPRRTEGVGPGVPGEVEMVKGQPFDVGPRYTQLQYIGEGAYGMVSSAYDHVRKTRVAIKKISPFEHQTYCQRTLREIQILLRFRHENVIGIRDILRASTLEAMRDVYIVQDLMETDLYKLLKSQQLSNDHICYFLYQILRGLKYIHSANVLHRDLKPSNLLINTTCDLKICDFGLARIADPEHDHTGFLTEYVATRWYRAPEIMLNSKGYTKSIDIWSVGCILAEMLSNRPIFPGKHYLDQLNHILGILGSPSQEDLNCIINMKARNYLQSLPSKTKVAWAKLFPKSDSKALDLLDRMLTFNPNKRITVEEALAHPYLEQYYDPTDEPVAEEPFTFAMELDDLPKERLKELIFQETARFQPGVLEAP

COc1ccc2cc(CC(=O)O)ccc2c1
Not Active: all assays above

CC(C)NC[C@H](O)COc1cccc2[nH]ccc12
Not Active: all assays above

c1ccc2c(c1)cc1ccc3cccc4ccc2c1c34
Not Active: all assays above

CC=CC(=O)N(CC)c1ccccc1C
Not Active: all assays above

C=C1C(=O)O[C@@H]2C3O[C@]3(C)CC/C=C(\C)CC[C@@H]12 (stereo partly drawn)
Not Active: all assays above

CC(/C=C1\SC(=S)N(CC(=O)O)C1=O)=C\c1ccccc1
not listed: [3]
Not Active: all other assays above

CCCCCCCCCc1ccc(O)cc1 [4-NONYLPHENOL]
Not Active: all assays above

COc1ccc2c(c1)c(CC(=O)OCC(=O)O)c(C)n2C(=O)c1ccc(Cl)cc1 [ACEMETACIN]
Not Active: all assays above

CCCSc1ccc2nc(NC(=O)OC)[nH]c2c1 [ALBENDAZOLE]
Not Active: all assays above

Cc1ccccc1N1CCN(CCc2nnc3n2CCCC3)CC1 [DAPIPRAZOLE]
not listed: [5]
Not Active: all other assays above
